Counter-ions that a name gives are not always drawn. Like-named read-outs stand apart in the source and are kept apart here.
Test system: murine neural precursor cells (neurosphere cultures)
Test: HTS of LOPAC library against secondary neurosphere cultures, MTT proliferation assay at 3 μM, day 7 (z score, P value)
Assay type: cell-based, mouse
[1] = LOPAC primary screen, neurosphere MTT proliferation, 3 μM, day 7
[2] = yes/no: significantly inhibited neurosphere proliferation in primary screen
[3] = LOPAC library screen, 3 μM, MTT, secondary neurosphere cultures, day 7
[4] = primary LOPAC screen, 3 μM, MTT, neurosphere proliferation
[5] = yes/no: significantly inhibited neurosphere proliferation in the primary screen
[6] = LOPAC library screen at 3 μM, secondary neurosphere cultures, MTT
[7] = LOPAC library screen, 3 μM, MTT, neurosphere cultures
[8] = yes = significantly inhibited neurosphere proliferation (P<0.01) in the primary screen
[9] = LOPAC library screen at 3 μM, MTT, secondary neurosphere cultures, screened in singlets

`O=C(O)/C=C\C(=O)O.O=C(O)/C=C\C(=O)O.c1cc(CN2CCCCC2)cc(OCCCNc2nc3ccccc3s2)c1` [SKY 95282 dimaleate] was tested, and the “Z Score” value was 0.4241.

`C=CCN1C[C@H](C)N([C@H](c2ccc(C(=O)N(CC)CC)cc2)c2cccc(OC)c2)C[C@H]1C` [SNC80] was tested, and the “Z Score” value was −0.4575, the Z score [1] was −0.457 and the Activity [2] was “no”.

For `Oc1c2ccccc2c2c3c(cccc13)N=N2` [SP600125], the “Z Score” value [3] was −1.986 and the Z score (LOPAC screen, neurosphere MTT proliferation, 3 μM, day 7) was −1.986.

`Nc1ncnc2c1ncn2C1CCCO1` (stereo not drawn) [SQ 22536] was tested, and the “Z Score” value was 0.5616, the Z score [4] was 0.562 and the Activity [5] was “no”.

For `O=C(O)c1ccccc1Nc1cccc(OCc2ccc3ccccc3n2)c1` [SR 2640], the “Z Score” value was −1.548, the Z score [1] was −1.548 and the Activity [2] was “no”.

`Cl.NC1CCN(c2cccc(Cl)n2)CC1` [SR 57227A] was tested, and the “Z Score” value was −1.4, the Z score [1] was −1.400 and the Activity [2] was “no”.

In the case of `CCc1ccccc1OC[C@@H](O)CN[C@H]1CCCc2ccccc21.O=C(O)C(=O)O` [SR 59230A oxalate], the “Z Score” value [3] is reported as −1.222, the Z score [1] is reported as −1.222 and the Activity [2] is reported as “no”.

For `Br.COc1ccc(-c2ccc(=N)n(CCCC(=O)O)n2)cc1` [SR-95531], the Activity was “no”, the “Z Score” value was −0.9574 and the Z score was −0.957.

`CN(C)c1ccc(/C=C2\C(=O)Nc3ccccc32)cc1` [SU 4312] was tested, and the “Z Score” value was 0.2692, the Z score [1] was 0.269 and the Activity [2] was “no”.

For `Cc1cc(C)c(/C=C2\C(=O)Nc3ccccc32)[nH]1` [SU 5416], the “Z Score” value was −0.6622, the Z score [1] was −0.662 and the Activity [2] was “no”.

With `CN(C)S(=O)(=O)c1ccc2c(c1)/C(=C/c1cc3c([nH]1)CCCC3)C(=O)N2` [SU 6656] the “Z Score” value was 0.3165, the Z score [1] was 0.316 and the Activity [2] was “no”.

For `CC(C)(C)NCC(O)c1ccc(O)c(CO)c1` (stereo not drawn) [Salbutamol], the “Z Score” value [3] was −1.678, the Z score [1] was −1.678 and the Activity [2] was “no”.

For `OCc1cc(C(O)CNCCCCCCOCCCCc2ccccc2)ccc1O` (stereo not drawn) [Salmeterol], the Activity was “no”, the “Z Score” value [6] was −0.4896 and the Z score [1] was −0.490.

For `CCCCCCCCCC[Si](C)(C)CCC(=O)NC(Cc1ccc(C)cc1)c1ccccc1` (stereo not drawn) [Sandoz 58-035], the “Z Score” value [7] was 0.3325, the Z score [4] was 0.332 and the Activity [5] was “no”.

In the case of `C[n+]1cc2c3c(ccc2c2ccc4cc5c(cc4c21)OCO5)OCO3` [Sanguinarine chloride], the “Z Score” value is reported as −10.01, the Z score [1] is reported as −10.008 and the Activity (yes/no: significantly inhibited neurosphere proliferation (P<0.01) in the primary screen) is reported as “yes”.

With `C[Se]C[C@H](N)C(=O)O.Cl` [Se-(methyl)selenocysteine hydrochloride] the “Z Score” value was 0.4116, the Z score [1] was 0.412 and the Activity [8] was “no”.

`CC(C)[C@@H]1NC(=O)[C@H](CCCCN)NC(=O)[C@@H](Cc2c[nH]c3ccccc23)NC(=O)[C@H](Cc2ccc(O)cc2)NC(=O)[C@H](C)N(C)C(=O)[C@H](Cc2ccccc2)NC1=O` [Seglitide] was tested, and the “Z Score” value [6] was −0.662, the Z score [1] was −0.662 and the Activity [2] was “no”.

In the case of `NNC(N)=O` [Semicarbazide hydrochloride], the “Z Score” value is reported as −1.405, the Z score [1] is reported as −1.405 and the Activity [2] is reported as “no”.

With `C[C@H](O)C(=O)C1=Nc2c(nc(N)[nH]c2=O)NC1` [Sepiapterin] the “Z Score” value (168 h, 3 µM) was 1.795, the Z score (168 h, 3 µM) was 1.795 and the Activity [5] was “no”.

With `NCCc1c[nH]c2ccc(O)cc12` [Serotonin hydrochloride] the “Z Score” value (168 h, 3 µM) was −2.197, the Z score (168 h, 3 µM) was −2.197 and the Activity (yes/no: significantly inhibited neurosphere proliferation (P<0.01) in primary screen) was “no”.

In the case of `CC(C)COC(=O)OCN1C(=O)CN(CCN2CC(=O)N(COC(=O)OCC(C)C)C(=O)C2)CC1=O` [Sobuzoxane], the “Z Score” value [3] is reported as −9.6, the Z score [1] is reported as −9.600 and the Activity [8] is reported as “yes”.

For `NC(=O)C(=O)[O-].[Na+]` [Sodium Oxamate], the “Z Score” value (168 h, 3 µM) was 0.7449, the Z score (168 h, 3 µM) was 0.745 and the Activity [2] was “no”.

With `C[C@H](CCC(=O)NCCS(=O)(=O)O)[C@H]1CC[C@H]2[C@@H]3[C@H](O)C[C@@H]4C[C@H](O)CC[C@]4(C)[C@H]3C[C@H](O)[C@]12C` [Sodium Taurocholate] the Activity was “no”, the “Z Score” value was −0.7604 and the Z score was −0.760.

For `Cl.Cl.Cl.NCCCCNCCCN` [Spermidine trihydrochloride], the “Z Score” value [7] was 1.259, the Z score [1] was 1.259 and the Activity [2] was “no”.

For `Cl.Cl.Cl.Cl.NCCCNCCCCNCCCN` [Spermine tetrahydrochloride], the Activity was “no”, the “Z Score” value was 0.3942 and the Z score was 0.394.

With `CCCCCCCCCCCCC/C=C/[C@@H](O)[C@@H](N)CO` [Sphingosine] the “Z Score” value was 1.404, the Z score [1] was 1.404 and the Activity [2] was “no”.

For `O=C(CCCN1CCC2(CC1)C(=O)NCN2c1ccccc1)c1ccc(F)cc1` [Spiperone hydrochloride], the “Z Score” value [6] was −0.5168, the Z score [1] was −0.517 and the Activity [2] was “no”.

`CC(=O)S[C@@H]1CC2=CC(=O)CC[C@]2(C)[C@H]2CC[C@@]3(C)[C@@H](CC[C@@]34CCC(=O)O4)[C@H]12` [Spironolactone] was tested, and the Activity was “no”, the “Z Score” value [6] was −0.5258 and the Z score [1] was −0.526.

In the case of `O=C1NCN(c2ccccc2)C12CCN(CC1COc3ccccc3O1)CC2` (stereo not drawn) [Spiroxatrine], the “Z Score” value [7] is reported as 0.1219, the Z score [1] is reported as 0.122 and the Activity [2] is reported as “no”.

In the case of `C[N+](C)(C)CCOC(=O)CCC(=O)OCC[N+](C)(C)C` [Succinylcholine chloride], the “Z Score” value is reported as −1.93, the Z score [1] is reported as −1.930 and the Activity [2] is reported as “no”.

For `Nc1ccc(S(=O)(=O)Nc2ccnn2-c2ccccc2)cc1` [Sulfaphenazole], the “Z Score” value [3] was −1.362, the Z score [1] was −1.362 and the Activity [2] was “no”.

In the case of `CC1=C(CC(=O)O)c2cc(F)ccc2/C1=C\c1ccc(S(C)(=O)=O)cc1` [Sulindac sulfone], the “Z Score” value is reported as 0.5924, the Z score [1] is reported as 0.592 and the Activity [2] is reported as “no”.

`CC1=C(CC(=O)O)c2cc(F)ccc2/C1=C\c1ccc([S+](C)[O-])cc1` (stereo not drawn) [Sulindac] was tested, and the Activity was “no”, the “Z Score” value [6] was −0.1942 and the Z score [1] was −0.194.

For `Cc1ccc(C(=O)Nc2ccc(S(=O)(=O)[O-])c3cc(S(=O)(=O)[O-])cc(S(=O)(=O)[O-])c23)cc1NC(=O)c1cccc(NC(=O)Nc2cccc(C(=O)Nc3cc(C(=O)Nc4ccc(S(=O)(=O)[O-])c5cc(S(=O)(=O)[O-])cc(S(=O)(=O)[O-])c45)ccc3C)c2)c1.[Na+].[Na+].[Na+].[Na+].[Na+].[Na+]` [Suramin hexasodium], the “Z Score” value [9] was 2.284, the Z score [4] was 2.284 and the Activity [5] was “no”.

`COC(=O)c1c(-c2cc(OC)c(OC)c(OC)c2)c2ccnc(OCc3ncccn3)c2c(=O)n1Cc1ccnc(C)c1` [T-0156] was tested, and the “Z Score” value was 0.07709, the Z score [4] was 0.077 and the Activity [5] was “no”.

`COC(=O)c1c(-c2cc(OC)c(OC)c(OC)c2)c2ccc(OCc3ccccn3)cc2c(=O)n1-c1ccc(N)cc1` [T-1032] was tested, and the “Z Score” value was −2.02, the Z score [4] was −2.020 and the Activity [5] was “no”.

`Clc1cnc(Oc2ccc(Oc3ncc(Cl)cc3Cl)cc2)c(Cl)c1` [TCPOBOP] was tested, and the “Z Score” value [3] was −2.008, the Z score [1] was −2.008 and the Activity [8] was “no”.

`CCSC(N)=Nc1ccc(C(F)(F)F)cc1.Cl` [TFPI hydrochloride] was tested, and the “Z Score” value [6] was −1.156, the Z score [1] was −1.156 and the Activity [2] was “no”.

With `Cl.O=c1[nH]oc2c1CCNC2` [THIP hydrochloride] the “Z Score” value was 0.3613, the Z score [4] was 0.361 and the Activity [5] was “no”.

In the case of `CCN(CC)CCCCCCCCOC(=O)c1cc(OC)c(OC)c(OC)c1.Cl` [TMB-8 hydrochloride], the “Z Score” value is reported as 1.707, the Z score [1] is reported as 1.707 and the Activity [8] is reported as “no”.

With `CP(=O)(O)C1=CCNCC1` [TPMPA] the “Z Score” value was 0.8742, the Z score [4] was 0.874 and the Activity [5] was “no”.

In the case of `C/C(=C\c1ccc(C(=O)O)cc1)c1ccc2c(c1)C(C)(C)CCC2(C)C` [TTNPB], the “Z Score” value is reported as −2.158, the Z score [4] is reported as −2.158 and the Activity [5] is reported as “no”.

In the case of `CC/C(=C(\c1ccccc1)c1ccc(OCCN(C)C)cc1)c1ccccc1` [Tamoxifen citrate], the Activity is reported as “yes”, the “Z Score” value [3] is reported as −10.64 and the Z score [1] is reported as −10.643.

For `NCCS(=O)(=O)O` [Taurine], the “Z Score” value [7] was 0.5328, the Z score [4] was 0.533 and the Activity [5] was “no”.

For `CC(=O)O[C@H]1C(=O)[C@@]2(C)[C@H]([C@H](OC(=O)c3ccccc3)[C@]3(O)C[C@H](OC(=O)[C@H](O)[C@@H](NC(=O)c4ccccc4)c4ccccc4)C(C)=C1C3(C)C)[C@]1(OC(C)=O)CO[C@@H]1C[C@@H]2O` [Taxol], the “Z Score” value [3] was −11.27, the Z score [1] was −11.274 and the Activity [8] was “yes”.

With `Cc1scc2c1N(C(=O)CN1CCN(C)CC1)c1ccccc1NC2=O` [Telenzepine dihydrochloride] the “Z Score” value (168 h, 3 µM) was 0.3813, the Z score (168 h, 3 µM) was 0.381 and the Activity [5] was “no”.

For `COc1cc2nc(N3CCN(C(=O)C4CCCO4)CC3)nc(N)c2cc1OC` (stereo not drawn) [Terazosin hydrochloride], the Activity was “no”, the “Z Score” value [7] was −0.05722 and the Z score [4] was −0.057.

With `CC(C)(C)c1ccc(C(O)CCCN2CCC(C(O)(c3ccccc3)c3ccccc3)CC2)cc1` (stereo not drawn) [Terfenadine] the Activity was “no”, the “Z Score” value [7] was 0.7553 and the Z score [4] was 0.755.

In the case of `CCCCNc1ccc(C(=O)OCCN(C)C)cc1` [Tetracaine hydrochloride], the “Z Score” value [7] is reported as −0.01953, the Z score [4] is reported as −0.020 and the Activity [5] is reported as “no”.

For `CC[N+](CC)(CC)CC.[Cl-]` [Tetraethylammonium chloride], the Activity was “no”, the “Z Score” value was 0.123 and the Z score was 0.123.

In the case of `CCN(CC)C(=S)SSC(=S)N(CC)CC` [Tetraethylthiuram disulfide], the “Z Score” value [9] is reported as 2.347, the Z score [4] is reported as 2.347 and the Activity [5] is reported as “no”.
